Measured values taken from patent US20130045931A1 (priority 2010, published 2013).

Tests used:
Gram-positive bacteria = conditions: some Gram-positive bacteria; cited from earlier work
Gram-negative bacteria = conditions: cited from earlier work
[1] = tested on: Propionibacterium acnes (DSM 1897); test: Antibacterial activity against causative agent of acne vulgaris; assay type: cell-based
[2] = tested on: Xanthomonas campestris (DSM 2405); assay type: cell-based
Phytophthora infestans = assay type: cell-based; conditions: Phytophthora infestans (Isolate), 48 hours at 20° C. in the dark
[3] = tested on: intestinal tumor cell line HT29; test: CellTiter-Blue cell viability assay; assay type: cell-based, human
Description: (§1) To determine the proliferation and cytotoxicity in respect of the liver tumor cell line HepG2 and the intestinal tumor cell line HT29, the effect on the metabolic activity of the cells was studied by means of the CellTiter-Blue® cell viability assay as described by O'Brien et al. (2000 Investigation of the alamar blue (resazurin) fluorescent dye for the assessment of mammalian cell cytotoxicity. European Journal of Biochemistry 267: 5421-6).

[4] = tested on: liver tumor cell line HepG2; test: CellTiter-Blue cell viability assay; assay type: cell-based, human
Description: as §1

GXF251L (gastric tumor) = test: Antiproliferative activity, propidium iodide fluorescence assay (Dengler et al. 1995); assay type: cell-based, human
LXF529L (lung tumor) = test: as above; assay type: cell-based, human
[5] = tested on: MAXF401NL (breast cancer); test: as above; assay type: cell-based, human
[6] = tested on: PAXF1657L (pancreatic tumor); test: as above; assay type: cell-based, human
[7] = tested on: Bacillus subtilis (DSM 347); test: Antibacterial growth inhibition (Lang et al. 2007)
[8] = tested on: Staphylococcus lentus (DSM 6672); test: Antibacterial growth inhibition (Lang et al. 2007)
[9] = tested on: Staphylococcus aureus (ATCC 12600); test: Antibacterial test, clinically relevant strains (Sahly et al. 2003)
[10] = tested on: Staphylococcus aureus (ATCC 33593, methicillin-resistant); test: as above
[11] = tested on: Staphylococcus epidermidis (Isolate, biofilm former); test: as above
[12] = tested on: Pseudomonas aeruginosa (ATCC 10145); test: as above; conditions: biofilm former

Cc1cc2cc(O)c3c(c2c(O[C@@H]2C[C@H](N(C)C)[C@@H](O)[C@@H](C)O2)c1[C@@H]1C[C@H](N(C)C)[C@@H](O)[C@H](C)O1)C(=O)c1cccc(O)c1C3=O [benzanthrin A]
activity against Gram-positive bacteria (Gram-positive bacteria): active against some Gram-positive bacteria
activity against Gram-negative bacteria (Gram-negative bacteria): not against Gram-negative bacteria

Cc1cc2cc(O)c3c(c2c(O[C@@H]2C[C@H](N(C)C)[C@H](O)[C@@H](C)O2)c1[C@@H]1C[C@H](N(C)C)[C@@H](O)[C@H](C)O1)C(=O)c1cccc(O)c1C3=O [benzanthrin B]
activity against Gram-positive bacteria (Gram-positive bacteria): active against some Gram-positive bacteria
activity against Gram-negative bacteria (Gram-negative bacteria): not against Gram-negative bacteria

mayamycin
IC50 [1]: 31.2 µM
IC50 [2]: 30 µM
IC50 (Phytophthora infestans): 15.2 µM
IC50 [3]: 0.3 µM
IC50 [4]: 0.2 µM
IC50 (GXF251L (gastric tumor)): 0.2 µM
IC50 (LXF529L (lung tumor)): 0.16 µM
IC50 [5]: 0.29 µM
IC50 [6]: 0.15 µM
IC50 [7]: 8 µM
IC50 [8]: 8 µM
IC50 [9]: 2.5 µM
IC50 [10]: 1.25 µM
IC50 [11]: 0.31 µM
IC50 [12]: 2.5 µM
